One series relates to cells. The note with it: ref 7b; cited from earlier work.
Series [1] is described as follows: Side-by-side LCMS/UV solution stability study. It is filed as physicochemical. The note with it: 0.1 mg/mL in DMSO/H2O (5:1), within 24 h.
The next series concerns tumor cell. The note with it: cited from earlier work.
A short description of series [2]: Spontaneous conversion of 1 to 13 under the assay conditions. The note with it: 90 min, in the presence or absence of DTT. In kind it is physicochemical.
The next series deals with recombinant human PTP4A3 (Homo sapiens, UniProt O75365). Kind of series: In vitro PTP4A3 phosphatase inhibition assay with DiFMUP substrate. In kind it is biochemical.
recombinant human PTP4A3, sequence (O75365 whole entry): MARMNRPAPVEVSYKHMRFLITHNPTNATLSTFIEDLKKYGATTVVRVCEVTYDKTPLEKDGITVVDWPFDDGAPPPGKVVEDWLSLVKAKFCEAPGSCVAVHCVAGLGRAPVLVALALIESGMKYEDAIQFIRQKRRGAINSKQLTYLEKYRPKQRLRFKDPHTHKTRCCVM

Some results are limits rather than exact numbers.

What is called IC50 is the midpoint of a concentration-inhibition curve.

As for `Nc1c[nH]c(=O)c2cc(-c3ccccc3)sc12` [Compound 1], the “Short-term cytotoxicity in cells” value with cells is “does not have any short-term cytotoxicity”. In addition, the Decomposition in series [1] is reported as over 80%. For the same molecule, the “Inhibition of tumor cell anchorage-independent growth” value in the series with tumor cell is “Significant inhibition”. The “Spontaneous conversion of 1 to 13” value in series [2] was at most 5%.

For `O=c1[nH]ccc2sc(-c3ccccc3)cc12` [Compound 12], the “PTP4A3 inhibition (in words)” value at recombinant human PTP4A3 (qualitative statement) is listed as “remarkably less active than 1”. At recombinant human PTP4A3 (read-out: IC50 [µM±S.D.], inhibition of PTP4A3 activity, n=3, DiFMUP 12 µM, 25 °C, 30 min, pH 7.0, 4 mM DTT), the IC50 is over 80 µM.

(Values after PMC4935606 (Organic & biomolecular chemistry, 2016).)
